Measured values from patent US11066414B2, “Cot modulators and methods of use thereof” (Gilead Sciences, Inc., priority 2015, dated 2021).
Read-outs that look alike come from different tables or passages of the source.

What was measured:
Human Cot = Human Cot (Homo sapiens (Human), UniProt P41279); test: High Throughput Cot Biochemical Assay; conditions: for IC50/EC50 [nM]: IC50 (Cot): first value of the cell IC50/EC50, recombinant human Cot catalytic domain, TR-FRET
EGFR = EGFR (Homo sapiens (Human), UniProt P00533); test: High Throughput EGFR Biochemical Assay; conditions: Human EGFR cytoplasmic domain, TR-FRET
Procedure: Example 42: High Throughput EGFR Biochemical Assay
EGFR activity was measured using KinEASE (Cisbio), a time-resolved fluorescence resonance energy transfer (TR-FRET) immunoassay. In this assay, EGFR-catalyzes the phosphorylation of a universal Tyrosine kinase peptide substrate labeled with XL665. Europium conjugated phosphor-tyrosine specific antibody binds the resulting phosphorylated peptide. Formation of phosphorylated peptide is quantified by TR-FRET with Europium as the donor and XL665 the acceptor. The assay was performed in two main steps. The first step is the kinase reaction step and the second step is the detection step with TR-FRET reagents. In brief, test compounds 1:3 serially diluted in DMSO were delivered into Corning white, low volume, non-binding 384 well plates using the Echo 550 acoustic liquid dispenser (Labcyte®). […] After 60 min of incubation at room temperature, 10 μL of Stop and Detect Solution (1:400 Europium Cryptate labeled anti-phosphorylated peptide antibody solution and 125 nM strepavidin-XL665 Tracer in a 50 mM Hepes pH 7.0 detection buffer containing sufficient EDTA) was added.

TNFα = test: Cot Monocyte TNFα Cell Based Assay; conditions: for IC50/EC50 [nM]: EC50 (TNFα): second value of the cell IC50/EC50, TNFα by TR-FRET
[1] = Homo sapiens, Monocyte, read-out: EC50 TNF, LPS-stimulated human monocytes, TNFα
[2] = IC50 HTRF, Cot HTRF (TR-FRET) biochemical assay

Human Cot, sequence (P41279 30-397): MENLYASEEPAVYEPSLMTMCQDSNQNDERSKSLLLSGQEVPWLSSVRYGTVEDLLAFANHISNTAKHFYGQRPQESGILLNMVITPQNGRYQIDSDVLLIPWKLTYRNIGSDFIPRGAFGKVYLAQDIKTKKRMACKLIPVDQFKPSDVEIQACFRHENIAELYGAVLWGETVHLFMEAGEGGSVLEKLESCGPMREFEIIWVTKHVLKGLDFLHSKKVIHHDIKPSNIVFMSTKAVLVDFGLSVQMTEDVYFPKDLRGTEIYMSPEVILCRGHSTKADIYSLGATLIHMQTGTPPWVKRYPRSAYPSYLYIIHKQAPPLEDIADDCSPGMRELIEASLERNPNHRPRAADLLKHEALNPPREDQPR
EGFR, sequence (P00533 669-1210): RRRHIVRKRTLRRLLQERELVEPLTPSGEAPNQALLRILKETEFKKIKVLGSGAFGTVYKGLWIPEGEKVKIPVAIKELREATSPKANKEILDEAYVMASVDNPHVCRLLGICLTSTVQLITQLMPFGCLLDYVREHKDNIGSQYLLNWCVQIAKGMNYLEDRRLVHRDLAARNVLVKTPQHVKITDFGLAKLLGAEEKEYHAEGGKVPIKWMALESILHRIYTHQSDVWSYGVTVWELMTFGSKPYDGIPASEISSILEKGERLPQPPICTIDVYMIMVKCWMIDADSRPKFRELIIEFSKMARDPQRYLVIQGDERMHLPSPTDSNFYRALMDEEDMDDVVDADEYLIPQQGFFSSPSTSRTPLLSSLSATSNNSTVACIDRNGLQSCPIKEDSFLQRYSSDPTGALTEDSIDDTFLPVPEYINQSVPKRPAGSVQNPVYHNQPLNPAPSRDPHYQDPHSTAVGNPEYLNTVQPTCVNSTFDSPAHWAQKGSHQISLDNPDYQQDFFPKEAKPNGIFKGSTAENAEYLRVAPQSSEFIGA

## Cn1cc([C@@H](Nc2cc(Cl)c3ncc(C#N)c(Nc4ccc(F)c(Cl)c4)c3c2)c2cccnc2)nn1 [Example 406, (S)-8-chloro-4-((3-chloro-4-fluoro-phenyl)amino)-6-(((1-methyl-1H-1,2,3-triazol-4-yl)(pyridin-3-yl)-methyl)amino)quinoline-3-carbonitrile]
Human Cot; 400 μM ATP
  IC50/EC50 [nM]: IC50 (Cot): 3 nM
Human Cot; read-out: IC50 HTRF, Cot HTRF (TR-FRET) biochemical assay
  IC50: 3 nM
EGFR
  IC50: > 10000 nM
TNFα; [1]
  EC50: 102 nM
TNFα; LPS-stimulated human monocytes
  IC50/EC50 [nM]: EC50 (TNFα): 102 nM

## CCN1CCC(n2cc([C@@H](Nc3cc(Cl)c4ncc(C#N)c(Nc5ccc(F)c(Cl)c5)c4c3)c3cccnc3)nn2)CC1 [Example 362, (S)-8-chloro-4-((3-chloro-4-fluorophenyl)amino)-6-(((1-(1-ethylpiperidin-4-yl)-1H-1,2,3-triazol-4-yl)(pyridin-3-yl)methyl)amino)-quinoline-3-carbonitrile]
Human Cot; [2]
  IC50: 1 nM
Human Cot; 400 μM ATP
  IC50/EC50 [nM]: IC50 (Cot): 1 nM
EGFR
  IC50: 3980 nM
TNFα; [1]
  EC50: 46 nM
TNFα; LPS-stimulated human monocytes
  IC50/EC50 [nM]: EC50 (TNFα): 46 nM

## CC(C)(C)CNc1c(C#N)cnc2c(Cl)cc(N[C@@H](c3cnc4ccccc4c3)c3cn(C4(C(F)(F)F)CC4)nn3)cc12 [Example 629, (S)-8-chloro-4-(neopentylamino)-6-((quinolin-3-yl(1-(1-(trifluoromethyl)cyclopropyl)-1H-1,2,3-triazol-4-yl)methyl)amino)quinoline-3-carbonitrile]
Human Cot; [2]
  IC50: 181 nM
TNFα; [1]
  EC50: 1000 nM

## Cn1ncc2c([C@H](Nc3cc(C#N)c4ncc(C#N)c(NCC(C)(C)C)c4c3)c3cn(C4(C)CC4)nn3)cccc21 [Example 529, (S)-6-(((1-methyl-1H-indazol-4-yl)(1-(1-methylcyclopropyl)-1H-1,2,3-triazol-4-yl)methyl)amino)-4-(neopentylamino)-quinoline-3,8-dicarbonitrile]
Human Cot; [2]
  IC50: 2 nM
TNFα; [1]
  EC50: 50 nM

## CC(C)(C)N1CCC(n2cc([C@@H](Nc3cc(Cl)c4ncc(C#N)c(Nc5ccc(F)c(Cl)c5)c4c3)c3cscn3)nn2)CC1 [Example 353, (S)-6-(((1-(1-(tert-butyl)piperidin-4-yl)-1H-1,2,3-triazol-4-yl)(thiazol-4-yl)methyl)amino)-8-chloro-4-((3-chloro-4-fluorophenyl)amino)-quinoline-3-carbonitrile]
Human Cot; [2]
  IC50: 4 nM
TNFα; [1]
  EC50: 184 nM

## CC(C)(C)CNc1c(C#N)cnc2c(C#N)cc(N[C@H](c3cn(C45CC(C4)C5)nn3)c3cccc4nc(C(F)F)ccc34)cc12 [Example 901, (S)-6-(((1-(bicyclo[1.1.1]pentan-1-yl)-1H-1,2,3-triazol-4-yl)(2-(difluoromethyl)quinolin-5-yl)methyl)amino)-4-(neopentylamino)quinoline-3,8-dicarbonitrile]
Human Cot; IC50 HTRF, Cot HTRF (TR-FRET KinEASE) biochemical assay, 400 μM ATP
  IC50: 484 nM
TNFα; Homo sapiens, Monocyte, read-out: EC50 TNF, LPS-stimulated human monocytes, TNFα TR-FRET
  EC50: 1000 nM

## Cc1nc(F)ccc1[C@H](Nc1cc(Cl)c2ncc(C#N)c(NCC3C(C)(C)C3(C)C)c2c1)c1cn(C2(C(F)F)CC2)nn1 [Example 733, (S)-8-chloro-6-(((1-(1-(difluoromethyl)cyclopropyl)-1H-1,2,3-triazol-4-yl)(6-fluoro-2-methylpyridin-3-yl)methyl)amino)-4-(((2,2,3,3-tetramethylcyclopropyl)methyl)-amino)quinoline-3-carbonitrile]
Human Cot; [2]
  IC50: 42 nM
TNFα; [1]
  EC50: 835 nM

## [2H]c1c([C@@H](Nc2cc(Cl)c3ncc(C#N)c(NCC(C)(C)C)c3c2)c2ccc(F)nc2C)nnn1C1(C(F)(F)F)CC1 [Example 549, (S)-8-chloro-6-(((6-fluoro-2-methylpyridin-3-yl)(1-(1-(trifluoromethyl)cyclopropyl)-1H-1,2,3-triazol-4-yl-5-d)methyl)amino)-4-(neopentylamino)quinoline-3-carbonitrile]
Human Cot; [2]
  IC50: 4 nM
TNFα; [1]
  EC50: 68 nM

## Cn1ccc2c([C@H](Nc3cc(Cl)c4ncc(C#N)c(NCC(C)(C)C(F)(F)F)c4c3)c3cn(C4(C(F)(F)F)CC4)nn3)cccc2c1=O [Example 780, (S)-8-chloro-6-(((2-methyl-1-oxo-1,2-dihydroisoquinolin-5-yl)(1-(1-(trifluoromethyl)-cyclopropyl)-1H-1,2,3-triazol-4-yl)methyl)amino)-4-((3,3,3-trifluoro-2,2-dimethylpropyl)amino)-quinoline-3-carbonitrile]
Human Cot; [2]
  IC50: 5 nM
TNFα; [1]
  EC50: 52 nM

## CC(C)n1cc([C@@H](Nc2cc(Cl)c3ncc(C#N)c(Nc4ccc(F)c(Cl)c4)c3c2)c2csc3c2CCN(C)C3)nn1 [Example 345, (S)-8-chloro-4-((3-chloro-4-fluorophenyl)amino)-6-(((1-isopropyl-1H-1,2,3-triazol-4-yl)(6-methyl-4,5,6,7-tetrahydrothieno[2,3-c]pyridin-3-yl)methyl)amino)quinoline-3-carbonitrile]
Human Cot; [2]
  IC50: 3 nM
TNFα; [1]
  EC50: 73 nM

## Cc1ncccc1[C@H](Nc1cc(Cl)c2ncc(C#N)c(Nc3ccc(Cl)c(Cl)c3F)c2c1)c1c[nH]nn1 [Example 227, (S)-8-chloro-4-((3,4-dichloro-2-fluorophenyl)amino)-6-(((2-methylpyridin-3-yl)(1H-1,2,3-triazol-4-yl)methyl)amino)-quinoline-3-carbonitrile]
Human Cot; [2]
  IC50: 44 nM
TNFα; [1]
  EC50: 6420 nM

## COc1nccc2c([C@H](Nc3cc(C#N)c4ncc(C#N)c(NCC(C)(C)C)c4c3)c3cn(C4CC4)nn3)cccc12 [Example 808, (S)-6-(((1-cyclopropyl-1H-1,2,3-triazol-4-yl)(1-methoxylsoquinolin-5-yl)methyl)airiino)-4-(neopentylamino)quinoline-3,8-dicarbonitrile]
Human Cot; read-out: IC50 HTRF, Cot HTRF (TR-FRET KinEASE) biochemical assay, 400 μM ATP
  IC50: 3 nM
TNFα; read-out: EC50 TNF, LPS-stimulated human monocytes, TNFα TR-FRET
  EC50: 29 nM

## Cc1ncccc1[C@H](Nc1cc(Cl)c2ncc(C#N)c(N[C@@H](CO)c3ccccc3)c2c1)c1c[nH]nn1 [Example 219, 8-chloro-4-(((R)-2-hydroxy-1-phenylethyl)amino)-6-(((S)-(2-methylpyridin-3-yl)(1H-1,2,3-triazol-4-yl)methyl)amino)quinoline-3-carbonitrile]
Human Cot; [2]
  IC50: 4450 nM
TNFα; [1]
  EC50: > 10000 nM

## Cc1ncsc1[C@H](Nc1cc(Cl)c2ncc(C#N)c(NCC(C)(C)C)c2c1)c1cn(C2(C3CC3)CC2)nn1 [Example 702, (R)-6-(((1-([1,1′-bi(cyclopropan)]-1-yl)-1H-1,2,3-triazol-4-yl)(4-methylthiazol-5-yl)methyl)amino)-8-chloro-4-(neopentylamino)quinoline-3-carbonitrile]
Human Cot; [2]
  IC50: 4 nM
TNFα; [1]
  EC50: 188 nM
